Measurements published in ChEMBL document CHEMBL1201862, “PubChem BioAssay data set” (2004).
Each block holds one molecule with its values, some of them ahead of it. The source made the active and inactive calls.

Tests used:
[1] = biological target: T1, Nuclear receptor subfamily 0 group B member 1 (Homo sapiens, UniProt P51843); assay: Luminescence-based cell-based high throughput dose response assay for inhibitors of the orphan nuclear receptor subfamily 0, group B, member 1 (DAX1; NR0B1). [Related pubchem assays (depositor defined):AID504766, AID504790]; format: functional
T1 sequence (P51843 whole entry): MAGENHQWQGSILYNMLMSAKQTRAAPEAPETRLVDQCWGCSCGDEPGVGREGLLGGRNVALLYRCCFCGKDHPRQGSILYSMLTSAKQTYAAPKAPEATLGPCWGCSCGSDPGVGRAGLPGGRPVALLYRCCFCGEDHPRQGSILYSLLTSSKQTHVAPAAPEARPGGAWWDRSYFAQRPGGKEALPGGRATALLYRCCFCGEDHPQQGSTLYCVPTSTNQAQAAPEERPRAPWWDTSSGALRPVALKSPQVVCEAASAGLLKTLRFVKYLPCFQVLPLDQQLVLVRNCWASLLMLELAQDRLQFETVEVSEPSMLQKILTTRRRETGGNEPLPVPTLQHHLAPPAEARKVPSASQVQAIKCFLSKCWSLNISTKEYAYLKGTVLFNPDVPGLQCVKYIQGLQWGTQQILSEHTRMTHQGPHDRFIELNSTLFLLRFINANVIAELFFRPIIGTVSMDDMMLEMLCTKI

[2] = test system: HEK293; assay: cells; format: functional, cell-based; conditions: Homo sapiens
[3] = biological target: T2, Sentrin-specific protease 6 (Homo sapiens, UniProt Q9GZR1); assay: SAR Analysis of small molecule inhibitors of Sentrin-specific protease 6 (SENP6) using a Luminescent assay. [Related pubchem assays (depositor defined):AID2582, AID2599]; format: functional
T2 sequence (Q9GZR1 whole entry): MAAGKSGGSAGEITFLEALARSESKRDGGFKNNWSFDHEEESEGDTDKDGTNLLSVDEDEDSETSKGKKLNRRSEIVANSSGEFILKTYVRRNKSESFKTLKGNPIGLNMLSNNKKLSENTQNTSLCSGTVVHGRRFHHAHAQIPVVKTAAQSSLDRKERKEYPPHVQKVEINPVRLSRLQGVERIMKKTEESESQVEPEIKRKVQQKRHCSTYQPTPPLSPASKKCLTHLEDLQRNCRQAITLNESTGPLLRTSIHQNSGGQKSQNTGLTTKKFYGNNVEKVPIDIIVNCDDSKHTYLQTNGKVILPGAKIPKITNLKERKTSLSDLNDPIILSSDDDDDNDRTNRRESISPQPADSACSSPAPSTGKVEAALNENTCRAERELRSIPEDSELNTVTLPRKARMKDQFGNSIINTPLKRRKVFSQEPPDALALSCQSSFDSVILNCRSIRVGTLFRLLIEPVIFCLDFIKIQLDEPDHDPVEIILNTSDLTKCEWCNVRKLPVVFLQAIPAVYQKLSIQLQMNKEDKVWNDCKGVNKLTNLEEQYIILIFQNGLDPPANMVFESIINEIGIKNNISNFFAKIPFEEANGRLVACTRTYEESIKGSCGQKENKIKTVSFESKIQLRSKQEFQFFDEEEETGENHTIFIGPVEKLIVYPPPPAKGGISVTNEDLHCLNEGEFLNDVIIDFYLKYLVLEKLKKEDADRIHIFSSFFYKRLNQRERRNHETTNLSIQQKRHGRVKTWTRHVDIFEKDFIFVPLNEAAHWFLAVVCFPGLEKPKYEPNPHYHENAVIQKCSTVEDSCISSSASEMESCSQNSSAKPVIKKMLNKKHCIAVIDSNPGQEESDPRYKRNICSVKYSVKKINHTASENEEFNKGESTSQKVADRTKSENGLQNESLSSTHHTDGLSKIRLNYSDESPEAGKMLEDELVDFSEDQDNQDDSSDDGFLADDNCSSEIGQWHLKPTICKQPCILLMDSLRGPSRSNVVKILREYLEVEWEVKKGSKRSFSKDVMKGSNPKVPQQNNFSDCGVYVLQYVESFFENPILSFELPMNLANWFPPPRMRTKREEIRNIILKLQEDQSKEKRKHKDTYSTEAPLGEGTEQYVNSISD

[4] = biological target: T3, Sentrin-specific protease 8 (Homo sapiens, UniProt Q96LD8); assay: inhibition of human SENP8 cleavage activity – biochemical, luminescence, SAR follow-up (AID 504501); format: functional
T3 sequence (Q96LD8 whole entry): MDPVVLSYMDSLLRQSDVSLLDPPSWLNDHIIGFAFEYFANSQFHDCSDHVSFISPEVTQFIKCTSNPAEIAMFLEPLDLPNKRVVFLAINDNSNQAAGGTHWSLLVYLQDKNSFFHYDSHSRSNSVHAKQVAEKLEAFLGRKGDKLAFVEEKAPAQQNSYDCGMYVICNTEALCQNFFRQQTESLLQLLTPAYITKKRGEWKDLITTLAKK

[5] = biological target: T4, Sentrin-specific protease 7 (Homo sapiens, UniProt Q9BQF6); assay: inhibition of human SENP7 cleavage activity – biochemical, luminescence, SAR follow-up (AID 504497); format: functional
T4 sequence (Q9BQF6 whole entry): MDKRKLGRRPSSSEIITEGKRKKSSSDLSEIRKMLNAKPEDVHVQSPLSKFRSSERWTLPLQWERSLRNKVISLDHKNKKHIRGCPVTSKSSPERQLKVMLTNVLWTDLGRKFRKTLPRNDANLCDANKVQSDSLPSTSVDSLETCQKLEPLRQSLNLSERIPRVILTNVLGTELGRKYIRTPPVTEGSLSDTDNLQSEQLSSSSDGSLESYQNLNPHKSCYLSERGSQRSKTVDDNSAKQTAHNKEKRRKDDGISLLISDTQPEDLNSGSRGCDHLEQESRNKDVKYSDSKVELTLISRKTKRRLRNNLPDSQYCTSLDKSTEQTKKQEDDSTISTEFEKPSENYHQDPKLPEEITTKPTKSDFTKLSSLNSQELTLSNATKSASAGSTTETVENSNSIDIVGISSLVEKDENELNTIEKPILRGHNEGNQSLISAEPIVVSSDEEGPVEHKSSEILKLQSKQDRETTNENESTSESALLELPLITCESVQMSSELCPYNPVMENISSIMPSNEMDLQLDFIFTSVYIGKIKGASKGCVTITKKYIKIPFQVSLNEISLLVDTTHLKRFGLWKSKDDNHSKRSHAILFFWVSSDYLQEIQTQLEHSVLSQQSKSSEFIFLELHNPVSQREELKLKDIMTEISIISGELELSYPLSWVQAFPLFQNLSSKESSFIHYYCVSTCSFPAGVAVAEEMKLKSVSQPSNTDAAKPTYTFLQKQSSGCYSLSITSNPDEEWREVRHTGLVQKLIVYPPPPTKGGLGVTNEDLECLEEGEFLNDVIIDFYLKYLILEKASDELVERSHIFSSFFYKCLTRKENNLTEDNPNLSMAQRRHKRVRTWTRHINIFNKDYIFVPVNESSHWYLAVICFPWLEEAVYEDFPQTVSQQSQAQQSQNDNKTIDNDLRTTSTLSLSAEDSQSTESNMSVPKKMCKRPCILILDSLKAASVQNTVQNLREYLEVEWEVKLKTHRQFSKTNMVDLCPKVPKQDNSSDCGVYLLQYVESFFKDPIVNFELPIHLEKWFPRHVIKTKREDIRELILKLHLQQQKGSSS

[6] = biological target: T5, Caspase-3 (Homo sapiens, UniProt P42574); assay: SAR Analysis of small molecule inhibitors of Sentrin-specific proteases (SENPs) using a Caspase-3 Selectivity assay. [Related pubchem assays (depositor defined):AID2540, AID2599, AID434973, AID489001]; format: functional
T5 sequence (P42574 whole entry): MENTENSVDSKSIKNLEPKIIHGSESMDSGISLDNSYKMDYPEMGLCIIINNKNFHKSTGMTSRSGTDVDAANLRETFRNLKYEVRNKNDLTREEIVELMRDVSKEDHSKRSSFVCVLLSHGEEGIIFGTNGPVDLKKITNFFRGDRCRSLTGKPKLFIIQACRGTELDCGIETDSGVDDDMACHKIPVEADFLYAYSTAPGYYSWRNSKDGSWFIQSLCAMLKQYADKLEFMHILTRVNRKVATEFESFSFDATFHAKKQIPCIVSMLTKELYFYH

[7] = biological target: ATP-dependent molecular chaperone HSP82 (Candida albicans (strain WO-1) (Yeast), UniProt C4YTQ8); assay: steroid-induced GRE reporter decrease in yeast – S. cerevisiae, luminescence, Hsp90 inhibitor project, dose response (AID 2400); format: functional, cell-based;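 also: beta-galactosidase luminescence from glucocorticoid response element reporter as proxy for Hsp90 function; inhibitor potency where signal loss means Hsp90 inhibition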
[8] = NIH-3T3 fibroblast cytotoxicity, dose response, cytotoxicity control, cell-based, fluorescence, Alamar Blue, secondary assay (AID 2327); format: functional;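 also: NIH-3T3 mouse fibroblasts cultured with fluconazole at 8 µg/mL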
[9] = biological target: T6, Serine/threonine-protein phosphatase (Candida dubliniensis (strain CD36 / CBS 7987 / NCPF 3949 / NRRLY-17841) (Yeast), UniProt B9W6M3); assay: blockers of CaCl2-induced CDRE-lacZ signaling – S. cerevisiae, luminescence, secondary, dose response (AID 2388); format: functional, cell-based;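 also: yeast reporter cells carrying a calcineurin-responsive lacZ construct stimulated with calcium chloride; luminescent beta-galactosidase reporter signal in whole cells rather than isolated phosphatase activity; potency for inhibition where a drop in reporter signal means calcineurin blockade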
T6 sequence (B9W6M3 whole entry): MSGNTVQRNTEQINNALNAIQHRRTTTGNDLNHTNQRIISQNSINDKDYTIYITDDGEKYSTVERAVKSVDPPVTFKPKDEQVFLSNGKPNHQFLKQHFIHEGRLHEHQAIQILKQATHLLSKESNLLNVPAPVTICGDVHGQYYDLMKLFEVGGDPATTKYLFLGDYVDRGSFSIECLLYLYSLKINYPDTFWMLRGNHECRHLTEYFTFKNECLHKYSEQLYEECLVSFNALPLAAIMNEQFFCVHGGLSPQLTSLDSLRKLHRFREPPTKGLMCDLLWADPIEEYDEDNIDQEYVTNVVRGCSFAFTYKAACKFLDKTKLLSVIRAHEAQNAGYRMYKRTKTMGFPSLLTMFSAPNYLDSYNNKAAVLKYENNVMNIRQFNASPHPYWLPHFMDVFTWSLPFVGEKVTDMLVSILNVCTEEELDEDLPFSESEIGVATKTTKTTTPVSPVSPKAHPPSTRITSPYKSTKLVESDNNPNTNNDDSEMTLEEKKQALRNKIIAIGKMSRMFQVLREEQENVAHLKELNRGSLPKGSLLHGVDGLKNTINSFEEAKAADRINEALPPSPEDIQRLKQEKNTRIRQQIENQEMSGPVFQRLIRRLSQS

[10] = fluconazole-exposed Candida albicans growth modulators – fluorescence, retest, confirmation (AID 2467); format: functional, cell-based
[11] = cells; format: functional, cell-based
[12] = decrease of insulin promoter-GFP reporter – imaging, high-content screening, mouse beta cells (AID 1628); format: functional; conditions: MIN6
[13] = test system: Streptococcus sp. 'group A'; assay: Streptococcus pyogenes SK(-)GAS viability under kanamycin – luminescence, BacTiterGlo, confirmation, counter-screen for streptokinase expression inhibitor project, dose response (AID 1900); format: functional, organism-based
[14] = cells; format: functional, cell-based; remark: listed apart in the source
[15] = MIN6 cell viability loss – mouse insulinoma, cytotoxicity control, dose response (AID 2122); format: functional;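 also: confirmatory high-throughput counterscreen run to flag cytotoxic compounds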
[16] = test system: Streptococcus; assay: GAS UMAA2166 growth inhibition – luminescence, BacTiterGlo, counter-screen for streptokinase expression inhibitor project, dose response (AID 1915); format: functional, organism-based;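 also: potency for reduction of bacterial viability or growth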
[17] = biological target: T7, DNA repair and recombination protein RAD54-like (Homo sapiens, UniProt Q92698); assay: RAD54 Holliday junction migration blockers – biochemical, fluorescence, cherry-picked samples, dose series, confirmation (AID 651657); format: functional
T7 sequence (Q92698 whole entry): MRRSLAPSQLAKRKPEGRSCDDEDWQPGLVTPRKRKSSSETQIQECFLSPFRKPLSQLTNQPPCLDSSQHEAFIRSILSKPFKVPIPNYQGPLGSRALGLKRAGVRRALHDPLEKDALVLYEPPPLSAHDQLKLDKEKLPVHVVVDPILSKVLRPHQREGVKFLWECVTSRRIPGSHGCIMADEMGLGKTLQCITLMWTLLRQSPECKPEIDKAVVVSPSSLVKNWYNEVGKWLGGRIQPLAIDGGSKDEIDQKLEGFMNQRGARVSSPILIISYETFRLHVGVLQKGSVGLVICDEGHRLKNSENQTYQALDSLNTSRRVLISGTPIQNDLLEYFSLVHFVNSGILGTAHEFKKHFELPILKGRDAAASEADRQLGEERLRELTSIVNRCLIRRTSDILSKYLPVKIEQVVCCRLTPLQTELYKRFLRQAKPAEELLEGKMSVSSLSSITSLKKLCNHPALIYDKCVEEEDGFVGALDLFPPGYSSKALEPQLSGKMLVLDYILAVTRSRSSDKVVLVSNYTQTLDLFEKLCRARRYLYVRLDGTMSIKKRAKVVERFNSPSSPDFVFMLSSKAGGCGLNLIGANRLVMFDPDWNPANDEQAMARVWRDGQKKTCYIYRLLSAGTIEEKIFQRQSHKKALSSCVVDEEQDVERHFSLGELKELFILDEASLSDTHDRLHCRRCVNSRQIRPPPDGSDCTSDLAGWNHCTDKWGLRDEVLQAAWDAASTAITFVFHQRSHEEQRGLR

ATP-dependent molecular chaperone HSP82, sequence (C4YTQ8 whole entry): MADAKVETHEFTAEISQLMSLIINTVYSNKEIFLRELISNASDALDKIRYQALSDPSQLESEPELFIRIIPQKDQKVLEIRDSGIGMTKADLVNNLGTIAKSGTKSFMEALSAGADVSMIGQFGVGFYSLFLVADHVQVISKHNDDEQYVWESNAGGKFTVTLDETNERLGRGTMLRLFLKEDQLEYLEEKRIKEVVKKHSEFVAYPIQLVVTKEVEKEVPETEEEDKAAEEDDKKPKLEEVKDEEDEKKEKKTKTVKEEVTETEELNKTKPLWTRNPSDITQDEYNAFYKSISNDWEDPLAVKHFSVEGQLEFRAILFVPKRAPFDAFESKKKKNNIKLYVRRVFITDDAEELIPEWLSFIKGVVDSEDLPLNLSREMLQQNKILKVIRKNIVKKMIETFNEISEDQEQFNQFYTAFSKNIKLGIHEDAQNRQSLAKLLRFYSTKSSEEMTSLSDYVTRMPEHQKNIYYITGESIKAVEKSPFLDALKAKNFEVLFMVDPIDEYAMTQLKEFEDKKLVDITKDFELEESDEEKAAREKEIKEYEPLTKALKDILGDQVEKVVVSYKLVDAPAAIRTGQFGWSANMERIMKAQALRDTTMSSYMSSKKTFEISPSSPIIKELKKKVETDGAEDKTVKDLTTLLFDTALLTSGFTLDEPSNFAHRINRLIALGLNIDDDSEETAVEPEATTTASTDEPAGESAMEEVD

SMILES: Cc1ccc(CCNC(=O)CC2Oc3ccc(C)cc3NC2=O)cc1 (centres undefined)
IC50 [1]: > 67.5 µM (inactive) | IC50 [2]: > 67.5 µM (inactive)

IC50 [3]: 1.75 µM (active) | IC50 [5]: 1.55 µM (active) | IC50 [6]: 1.09 µM (active)
SMILES: Oc1ccccc1-c1nc(-c2ccccc2)no1
IC50 [4]: 1.86 µM (active)

IC50 [3]: > 99 µM (inactive) | IC50 [5]: > 99 µM (inactive) | IC50 [6]: > 99 µM (inactive)
SMILES: CCCC(=O)Nc1ccc(-c2nc3cc(Cl)ccc3o2)cc1
IC50 [4]: > 99 µM (inactive)

SMILES: Cc1ccc(NC(=O)CNC(=O)c2ccc(Oc3ccccc3)cc2)nc1
EC50 [7]: 21.7 µM (active) | EC50 [8]: > 150 µM (inactive) | EC50 [9]: > 180 µM (inactive) | EC50 [10]: 1.24 µM (active)

SMILES: Oc1ccc(N=Nc2ccc3c(c2)OCCO3)c2cccnc12
EC50 [11]: 45.6 µM (active) | EC50 [7]: 12.8 µM (active) | EC50 [8]: 13.7 µM (inconclusive) | IC50 [12]: 2.15 µM (active) | EC50 [9]: > 180 µM (inactive) | EC50 [13]: 352 nM (active) | EC50 [10]: 1.24 µM (active) | EC50 [14]: 5.17 µM (active) | IC50 [15]: 1.37 µM (active) | EC50 [16]: 1.15 µM (active)

SMILES: Fc1ccc(Nc2nc(-c3cccnc3)cs2)cc1
IC50 [1]: > 67.5 µM (inactive) | IC50 [2]: > 67.5 µM (inactive)

SMILES: CCCN(CCC)CCCNC(=O)c1cc2c(=O)n(C)c3ccccc3c2n1C
IC50 [1]: > 67.5 µM (inactive) | IC50 [2]: 24.7 µM (inactive) | AC50 [17]: 36.8 µM (active)
